Tests used:
TIG-1-20 cells = experiment: Cell counting experiment (trypan blue, hematocytometer); format: cell-based; conditions: 0.2 mg/L DOX; at least for 2 days; folate-depleted DMEM
Experimental: Cells of either KB or TIG-1-20 were plated in 6 well cultivation plates and preincubated for 2-3 days, and each cultivation medium was replaced with new one (1.98 ml) just before the addition of anticancer reagents (0.02 ml). At the time of the addition, cell densities were about 5×10^4/ml for TIG-1-20, and about 15×10^4/ml for KB (each ca. 20-25% of their confluent states). The additives mainly used were; Control 1: PBS, Control 2 (FC): FA-CHP (1 mg)-CHP (4 mg) complex solution in 1 ml PBS, DOX 1: 0.02 mg doxorubicin/ml-PBS, DOX 2: 0.03 mg doxorubicin/ml-PBS, FA-CHP-CHP-DOX 1 (FCD 1): FA-CHP (1 mg)-CHP (4 mg)-DOX (0.02 mg) in 1 ml PBS, FA-CHP-CHP-DOX 2 (FCD 2): FA-CHP (1 mg)-CHP (4 mg)-DOX (0.03 mg) in 1 ml PBS. Drug mixtures with other composition were also tested essentially by the same procedure.
The culture medium was removed to 15 ml centrifugation tube, and cells remained attached to the dish were removed with Sigma cell dissociation solution (non-enzymatic, in PBS) in the case of KB, and with 0.05% trypsin and 0.02% EDTA solution in the case of TIG-1-20. […] After mixing with pipetting, all cells were counted on improved Neubauer hematocytometer. Detached cells were also counted by the same procedure after adjusting the removed medium to 2 ml.

[1] = format: physicochemical
Experimental: For example, 5.0 mg of FA-CHP can simply complex with 0.01 mg of DOX. Complexes of DOX with a mixture of FA-CHP and CHP are denoted as FA-CHP-CHP-DOX hereafter.

| Molecule | TIG-1-20 cell death / proliferation (cell number counting) (TIG-1-20 cells) | solubility in PBS [1] |
| --- | --- | --- |
| COc1cccc2c1C(=O)c1c(O)c3c(c(O)c1C2=O)C[C@@](O)(C(=O)CO)C[C@@H]3O[C@H]1C[C@H](N)[C@H](O)[C@H](C)O1 [DOX, Doxorubicin] | completely killed cell proliferation |  |
| folate modified cholesterol-bearing pullulan [FA-CHP] |  | easily soluble |
